{
  "source": "patent US20110190235A1",
  "about": "“BORON-CONTAINING SMALL MOLECULES AS ANTIPROTOZOAL AGENTS” (Anacor Pharmaceuticals, Inc., priority 2009, published 2011)",
  "assay": "L929 cytotoxicity evaluation (resazurin)",
  "type": "cell-based",
  "conditions": "mouse, L929 mouse fibroblast cells; 72 hrs incubation; read-out: Cytotox L-929 IC50",
  "in_short": "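Mouse L929 fibroblasts (1×10^4/mL seeding, attached overnight) were treated 72 h at 37 °C, 5% CO2 with serially diluted compounds in DMSO in D-MEM/10% FBS. Viability read by resazurin fluorescence after 3–4 h (ex 544/em 590 nm); IC50 from sigmoidal fits of single data points.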",
  "data": [
    {"smiles": "CC1(C)OB(O)c2cc(NC(=O)c3ccc(F)cc3C(F)(F)F)ccc21", "note": "[compound 82]", "values": [
      {"measurement": "IC50 at 72 h", "result": "> 10", "unit": "µg/mL"}
    ]}
  ]
}
